Experimental data from publication PMC8111326 (Journal of Molecular Endocrinology, 2021).
Counter-ions that a name gives are not always drawn. Like-named read-outs stand apart in the source and are kept apart here.

Key:
[1] = test system: [Ca2+]i in HEK293 cells
[2] = test system: HEK293 cells
[3] = test system: transmitter release; conditions: co-administered with calcium chelator BAPTA/AM; ref Di Virgilio et al. 1988; cited from earlier work
[4] = test system: α-MSH-induced [Ca2+]i in HEK293 cells; conditions: cited from earlier work

In the case of C[C@H](CCC(=O)O)C[C@H](C)C[C@H](C)C(=O)/C=C(\O)[C@H](C)C[C@H](C)C/C=C/[C@@H](C)[C@@H](O)[C@@H](C)[C@@H](O)C[C@@H]1CC[C@@](C)([C@H]2CC[C@@](C)([C@@H](C)O)O2)O1 [ionomycin, ionomycin calcium salt], the “ionomycin effect on calcium signal” value ([1]; presence or absence of probenecid, ionomycin 10 µL of 0.33 mM stock in DMSO) is reported as “rapid increase in calcium signal”.
For CCCN(CCC)S(=O)(=O)c1ccc(C(=O)O)cc1 [probenecid], the “interference with EGTA chelation of calcium” value ([1]; probenecid 1 mM in CLB-HG, Ca2+-free buffer-HG, -Ward or -Ion Optix, Supplementary Fig. 7) was “interfered with EGTA chelation of calcium”, the “interference with EGTA chelation of calcium” value ([1]; probenecid 0.5–2.5 mM, pluronic acid, Supplementary Fig. 5) was “interferes with EGTA chelation of calcium” and the “retention of Fura-2 in cells” value ([2]; probenecid 1 mM vs 2.5 mM) was 1 mM probenecid worked as efficiently as 2.5 mM for Fura-2 retention. For the same molecule, the “retention of Fura-2/AM and Fura-2 in cells” value ([2]; probenecid 2.5 mM, three independent experiments) was “retains Fura-2/AM and Fura-2 in HEK293 cell monolayers” and the “effect on transmitter release” value [3] was “profound and prolonged attenuation of transmitter release”.
In the case of cholera toxin, the “effect on α-MSH-induced [Ca2+]i” value [4] is listed as “significantly attenuated”.
With “ethylene glycol-bis (β-aminoethyl ether)-N,N,N′,N′-tetraacetic acid [EGTA]” the “EGTA chelation of calcium in specific Rmin wells” value ([1]; EGTA 5.5 mM final, cells co-loaded with Fura-2/AM and 10 µM EGTA in DMEM, probenecid 1 mM in esterase buffer, three independent experiments) was “chelated calcium in the presence of either Ca^2+-free-HG buffer or Ca^2+-free-Ward buffer”, the “effect of EGTA injection on basal calcium signal, optimised assay conditions (with probenecid)” value ([1]; cell monolayers, EGTA 10 µL of 165 mM stock) was “did not reduce basal calcium signal” and the “EGTA effect on fluorescence ratio (340/380), specific Rmin wells” value ([1]; cells depleted of calcium by EGTA prior to imaging, calcium-free buffer) was “rapid small decrease in fluorescence 340/380 ratio”. The “EGTA effect on fluorescence ratio (340/380), with probenecid” value ([1]; in the presence of probenecid) was “either has no effect on fluorescence ratio or increases the fluorescence ratio”.
